Read-outs that look alike come from different tables or passages of the source.
Legend:
Assay type in all cases: cell-based
[1] = tested on: Corynebacterium glutamicum ATCC13032; test: Bacterial growth in microscale cultivation, C. glutamicum; conditions: relative to control; for activity at 0.3 µM / activity at 3 µM / activity at 30 µM / activity at 0.1 µM / activity at 1 µM / activity at 10 µM: Corynebacterium glutamicum
In short: (§1)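 Inhibitors in DMSO were added to the medium, at a maximum of 400 μM for trans-chalcone and 100 μM for 2'-hydroxychalcone. Cultures were seeded at OD600 0.5, or 0.25 for B. subtilis, and growth was followed as 620 nm backscatter in a BioLector at 1200 rpm. Final backscatter, growth rate and lag phase were compared with DMSO controls.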

[2] = tested on: Escherichia coli K-12 MG1655; test: Bacterial growth in microscale cultivation, E. coli; conditions: relative to control; for activity at 0.3 µM / activity at 3 µM / activity at 30 µM / activity at 0.1 µM / activity at 1 µM / activity at 10 µM: Escherichia coli
In short: as §1

Bacillus subtilis 168 = test: Bacterial growth in microscale cultivation, B. subtilis; conditions: relative to control
In short: as §1

## O=C(/C=C/c1ccc(O)c(O)c1)c1c(O)cc(O)cc1O [Compound 11, 2′,4′,6′,3,4-Pentahydroxy-chalcone]
[1]; ATCC13032, complex medium, 0.3 µM, read-out: Final Backscatter
  activity at 0.3 µM: 99.6%
[1]; ATCC13032, complex medium, 0.3 µM, read-out: Growth rate
  activity at 0.3 µM: 94.6%
[1]; ATCC13032, complex medium, 3 µM, read-out: Final Backscatter
  activity at 3 µM: 103%
[1]; ATCC13032, complex medium, 3 µM, read-out: Growth rate
  activity at 3 µM: 104%
[1]; ATCC13032, complex medium, 30 µM, read-out: Final Backscatter
  activity at 30 µM: 103%
[1]; ATCC13032, complex medium, 30 µM, read-out: Growth rate
  activity at 30 µM: 95.3%
[1]; ATCC13032, minimal medium, 0.3 µM, read-out: Final Backscatter
  activity at 0.3 µM: 100%
[1]; ATCC13032, minimal medium, 0.3 µM, read-out: Growth rate
  activity at 0.3 µM: 104%
[1]; ATCC13032, minimal medium, 3 µM, read-out: Final Backscatter
  activity at 3 µM: 95.1%
[1]; ATCC13032, minimal medium, 3 µM, read-out: Growth rate
  activity at 3 µM: 105%
[1]; ATCC13032, minimal medium, 30 µM, read-out: Final Backscatter
  activity at 30 µM: 96.2%
[1]; ATCC13032, minimal medium, 30 µM, read-out: Growth rate
  activity at 30 µM: 104%
[1]; complex medium, 0.3 µM
  Lag Phase: 97,0%
[1]; complex medium, 3 µM
  Lag Phase: 97,0%
[1]; complex medium, 30 µM
  Lag Phase: 98,5%
[1]; minimal medium, 0.3 µM
  Lag Phase: 99,3%
[1]; minimal medium, 3 µM
  Lag Phase: 98,5%
[1]; minimal medium, 30 µM
  Lag Phase: 98,5%
[2]; MG1655, complex medium, 0.3 µM, read-out: Final Backscatter
  activity at 0.3 µM: 98%
[2]; MG1655, complex medium, 0.3 µM, read-out: Growth rate
  activity at 0.3 µM: 104%
[2]; MG1655, complex medium, 3 µM, read-out: Final Backscatter
  activity at 3 µM: 98.1%
[2]; MG1655, complex medium, 3 µM, read-out: Growth rate
  activity at 3 µM: 106%
[2]; MG1655, complex medium, 30 µM, read-out: Final Backscatter
  activity at 30 µM: 96.9%
[2]; MG1655, complex medium, 30 µM, read-out: Growth rate
  activity at 30 µM: 104%
[2]; MG1655, minimal medium, 0.3 µM, read-out: Final Backscatter
  activity at 0.3 µM: 98%
[2]; MG1655, minimal medium, 0.3 µM, read-out: Growth rate
  activity at 0.3 µM: 107%
[2]; MG1655, minimal medium, 3 µM, read-out: Final Backscatter
  activity at 3 µM: 98.7%
[2]; MG1655, minimal medium, 3 µM, read-out: Growth rate
  activity at 3 µM: 109%
[2]; MG1655, minimal medium, 30 µM, read-out: Final Backscatter
  activity at 30 µM: 97.9%
[2]; MG1655, minimal medium, 30 µM, read-out: Growth rate
  activity at 30 µM: 107%
[2]; complex medium, 0.3 µM
  Lag Phase: 107,1%
[2]; complex medium, 3 µM
  Lag Phase: 107,1%
[2]; complex medium, 30 µM
  Lag Phase: 107,1%
[2]; minimal medium, 0.3 µM
  Lag Phase: 103,4%
[2]; minimal medium, 3 µM
  Lag Phase: 101,7%
[2]; minimal medium, 30 µM
  Lag Phase: 103,4%
Bacillus subtilis 168; Bacillus subtilis, 168, complex medium, 0.3 µM, read-out: Final Backscatter
  activity at 0.3 µM: 97.4%
Bacillus subtilis 168; Bacillus subtilis, 168, complex medium, 0.3 µM, read-out: Growth rate
  activity at 0.3 µM: 106%
Bacillus subtilis 168; Bacillus subtilis, 168, complex medium, 3 µM, read-out: Final Backscatter
  activity at 3 µM: 96.5%
Bacillus subtilis 168; Bacillus subtilis, 168, complex medium, 3 µM, read-out: Growth rate
  activity at 3 µM: 106%
Bacillus subtilis 168; Bacillus subtilis, 168, complex medium, 30 µM, read-out: Final Backscatter
  activity at 30 µM: 97.1%
Bacillus subtilis 168; Bacillus subtilis, 168, complex medium, 30 µM, read-out: Growth rate
  activity at 30 µM: 97.8%
Bacillus subtilis 168; Bacillus subtilis, 168, minimal medium, 0.3 µM, read-out: Final Backscatter
  activity at 0.3 µM: 97.2%
Bacillus subtilis 168; Bacillus subtilis, 168, minimal medium, 0.3 µM, read-out: Growth rate
  activity at 0.3 µM: 114%
Bacillus subtilis 168; Bacillus subtilis, 168, minimal medium, 3 µM, read-out: Final Backscatter
  activity at 3 µM: 98.7%
Bacillus subtilis 168; Bacillus subtilis, 168, minimal medium, 3 µM, read-out: Growth rate
  activity at 3 µM: 107%
Bacillus subtilis 168; Bacillus subtilis, 168, minimal medium, 30 µM, read-out: Final Backscatter
  activity at 30 µM: 103%
Bacillus subtilis 168; Bacillus subtilis, 168, minimal medium, 30 µM, read-out: Growth rate
  activity at 30 µM: 103%
Bacillus subtilis 168; complex medium, 0.3 µM
  Lag Phase: 100,0%
Bacillus subtilis 168; complex medium, 3 µM
  Lag Phase: 100,0%
Bacillus subtilis 168; complex medium, 30 µM
  Lag Phase: 100,0%
Bacillus subtilis 168; minimal medium, 0.3 µM
  Lag Phase: 100,0%
Bacillus subtilis 168; minimal medium, 3 µM
  Lag Phase: 101,1%
Bacillus subtilis 168; minimal medium, 30 µM
  Lag Phase: 100,0%

## O=C(/C=C/c1ccc(O)c(O)c1)c1ccc(O)c(O)c1O [Compound 12, 2′,3′,4′,3,4-Pentahydroxy-chalcone]
[1]; ATCC13032, complex medium, 0.1 µM, read-out: Final Backscatter
  activity at 0.1 µM: 97%
[1]; ATCC13032, complex medium, 0.1 µM, read-out: Growth rate
  activity at 0.1 µM: 108%
[1]; ATCC13032, complex medium, 1 µM, read-out: Final Backscatter
  activity at 1 µM: 93.8%
[1]; ATCC13032, complex medium, 1 µM, read-out: Growth rate
  activity at 1 µM: 132%
[1]; ATCC13032, complex medium, 10 µM, read-out: Final Backscatter
  activity at 10 µM: 89.6%
[1]; ATCC13032, complex medium, 10 µM, read-out: Growth rate
  activity at 10 µM: 144%
[1]; ATCC13032, minimal medium, 0.1 µM, read-out: Final Backscatter
  activity at 0.1 µM: 99.6%
[1]; ATCC13032, minimal medium, 0.1 µM, read-out: Growth rate
  activity at 0.1 µM: 102%
[1]; ATCC13032, minimal medium, 1 µM, read-out: Final Backscatter
  activity at 1 µM: 97.6%
[1]; ATCC13032, minimal medium, 1 µM, read-out: Growth rate
  activity at 1 µM: 102%
[1]; ATCC13032, minimal medium, 10 µM, read-out: Final Backscatter
  activity at 10 µM: 96.7%
[1]; ATCC13032, minimal medium, 10 µM, read-out: Growth rate
  activity at 10 µM: 97.9%
[1]; complex medium, 0.1 µM
  Lag Phase: 96,4%
[1]; complex medium, 1 µM
  Lag Phase: 84,1%
[1]; complex medium, 10 µM
  Lag Phase: 99,3%
[1]; minimal medium, 0.1 µM
  Lag Phase: 99,3%
[1]; minimal medium, 1 µM
  Lag Phase: 99,3%
[1]; minimal medium, 10 µM
  Lag Phase: 100,7%
[2]; MG1655, complex medium, 0.1 µM, read-out: Final Backscatter
  activity at 0.1 µM: 98.5%
[2]; MG1655, complex medium, 0.1 µM, read-out: Growth rate
  activity at 0.1 µM: 106%
[2]; MG1655, complex medium, 1 µM, read-out: Final Backscatter
  activity at 1 µM: 100%
[2]; MG1655, complex medium, 1 µM, read-out: Growth rate
  activity at 1 µM: 100%
[2]; MG1655, complex medium, 10 µM, read-out: Final Backscatter
  activity at 10 µM: 97.9%
[2]; MG1655, complex medium, 10 µM, read-out: Growth rate
  activity at 10 µM: 111%
[2]; MG1655, minimal medium, 0.1 µM, read-out: Final Backscatter
  activity at 0.1 µM: 99.7%
[2]; MG1655, minimal medium, 0.1 µM, read-out: Growth rate
  activity at 0.1 µM: 99.8%
[2]; MG1655, minimal medium, 1 µM, read-out: Final Backscatter
  activity at 1 µM: 98.5%
[2]; MG1655, minimal medium, 1 µM, read-out: Growth rate
  activity at 1 µM: 100%
[2]; MG1655, minimal medium, 10 µM, read-out: Final Backscatter
  activity at 10 µM: 101%
[2]; MG1655, minimal medium, 10 µM, read-out: Growth rate
  activity at 10 µM: 104%
[2]; complex medium, 0.1 µM
  Lag Phase: 108,5%
[2]; complex medium, 1 µM
  Lag Phase: 102,8%
[2]; complex medium, 10 µM
  Lag Phase: 111,4%
[2]; minimal medium, 0.1 µM
  Lag Phase: 99,0%
[2]; minimal medium, 1 µM
  Lag Phase: 102,0%
[2]; minimal medium, 10 µM
  Lag Phase: 95,1%
Bacillus subtilis 168; Bacillus subtilis, 168, complex medium, 0.1 µM, read-out: Final Backscatter
  activity at 0.1 µM: 93.5%
Bacillus subtilis 168; Bacillus subtilis, 168, complex medium, 0.1 µM, read-out: Growth rate
  activity at 0.1 µM: 96.7%
Bacillus subtilis 168; Bacillus subtilis, 168, complex medium, 1 µM, read-out: Final Backscatter
  activity at 1 µM: 93.9%
Bacillus subtilis 168; Bacillus subtilis, 168, complex medium, 1 µM, read-out: Growth rate
  activity at 1 µM: 104%
Bacillus subtilis 168; Bacillus subtilis, 168, complex medium, 10 µM, read-out: Final Backscatter
  activity at 10 µM: 90.6%
Bacillus subtilis 168; Bacillus subtilis, 168, complex medium, 10 µM, read-out: Growth rate
  activity at 10 µM: 109%
Bacillus subtilis 168; Bacillus subtilis, 168, minimal medium, 0.1 µM, read-out: Final Backscatter
  activity at 0.1 µM: 102%
Bacillus subtilis 168; Bacillus subtilis, 168, minimal medium, 0.1 µM, read-out: Growth rate
  activity at 0.1 µM: 123%
Bacillus subtilis 168; Bacillus subtilis, 168, minimal medium, 1 µM, read-out: Final Backscatter
  activity at 1 µM: 98.6%
Bacillus subtilis 168; Bacillus subtilis, 168, minimal medium, 1 µM, read-out: Growth rate
  activity at 1 µM: 113%
Bacillus subtilis 168; Bacillus subtilis, 168, minimal medium, 10 µM, read-out: Final Backscatter
  activity at 10 µM: 104%
Bacillus subtilis 168; Bacillus subtilis, 168, minimal medium, 10 µM, read-out: Growth rate
  activity at 10 µM: 115%
Bacillus subtilis 168; complex medium, 0.1 µM
  Lag Phase: 110,6%
Bacillus subtilis 168; complex medium, 1 µM
  Lag Phase: 102,7%
Bacillus subtilis 168; complex medium, 10 µM
  Lag Phase: 94,7%
Bacillus subtilis 168; minimal medium, 0.1 µM
  Lag Phase: 98,2%
Bacillus subtilis 168; minimal medium, 1 µM
  Lag Phase: 100,6%
Bacillus subtilis 168; minimal medium, 10 µM
  Lag Phase: 100,0%

From paper PMC4893628, “Chalcone-based Selective Inhibitors of a C4 Plant Key Enzyme as Novel Potential Herbicides” (Scientific Reports, 2016)
